Like-named read-outs stand apart in the source and are kept apart here.
Assays:
Experiment in all cases: Test B pre-/postemergence plant response
Type in all cases: in vivo
kochia (Kochia scoparia) = settings: Postemergence
Summary of the method: (§1)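 Pre-em in loam/sand; post-em at 1–4 leaf (2–18 cm) in peat mix. Solvent + surfactant formulation. Greenhouse 13–15 d; visual % control vs untreated, 0–100.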

[1] = tested on: johnsongrass (Sorghum halepense)
Summary of the method: as §1

[2] = tested on: downy bromegrass (Bromus tectorum); settings: for pest or weed control at 31 g/ha: 31 g ai/ha, scale 0 to 100 (0 no effect, 100 complete control); for pest or weed control at 62 g/ha: 62 g ai/ha
Summary of the method: as §1

[3] = tested on: yellow nutsedge (Cyperus esculentus)
Summary of the method: as §1

corn (Zea mays) = settings: for Corn plant response rating (crop injury, 0 = no effect, 100 = complete kill) at 31 g/ha: 31 g ai/ha, scale 0 to 100 (0 no effect, 100 complete control)
Summary of the method: as §1

soybean (Glycine max) = tested on: soybean (Glycine max)
Summary of the method: as §1

[4] = tested on: goosegrass (Eleusine indica); settings: for pest or weed control at 62 g/ha: 62 g ai/ha
Summary of the method: as §1

[5] = tested on: blackgrass (Alopecurus myosuroides); settings: for pest or weed control at 31 g/ha: 31 g ai/ha, scale 0 to 100 (0 no effect, 100 complete control); for pest or weed control at 62 g/ha: 62 g ai/ha
Summary of the method: as §1

wild oat (Avena fatua) = settings: Avena fatua
Summary of the method: as §1

[6] = Preemergence, 125 g ai/ha, 0 to 100 scale
[7] = Postemergence, 250 g ai/ha, scale 0 to 100

**Q.** For `Cc1c(F)cccc1-n1c(-c2ccccc2)ncc(C(=O)C2=C(O)CCCC2=O)c1=O` [Compound 47, 3-(3-fluoro-2-methylphenyl)-5-[(2-hydroxy-6-oxo-1-cyclohexen-1-yl)carbonyl]-2-phenyl-4(3H)-pyrimidinone], which pest or weed control at 62 g/ha (kochia (Kochia scoparia); Bassia scoparia, post-emergence, 62 g ai/ha, scale 0 (no effect) to 100 (complete control), 13 to 15 days, read-out: Plant response rating, Kochia) is on record?
**A.** 95%

**Q.** And the pest or weed control at 125 g/ha (kochia (Kochia scoparia); Bassia scoparia, post-emergence, 125 g ai/ha, visual rating after 13 to 15 days, scale 0 (no effect) to 100 (complete control))?
**A.** 98%

**Q.** And the “Kochia plant response rating” value (kochia (Kochia scoparia); 250 g ai/ha, scale 0 to 100)?
**A.** 100

**Q.** And the “Johnsongrass plant response rating” value [1, 6]?
**A.** 80

**Q.** What about the pest or weed control at 125 g/ha ([1]; Sorghum halepense, post-emergence, Postemergence, 125 g ai/ha, visual rating after 13 to 15 days, scale 0 (no effect) to 100 (complete control)) of the same compound?
**A.** 98%

**Q.** What about the pest or weed control at 250 g/ha ([1]; Sorghum halepense, pre-emergence, 250 g ai/ha, Preemergence, 0 to 100 scale, read-out: Plant response rating, Johnsongrass) of the same compound?
**A.** 100%

**Q.** What about the pest or weed control at 31 g/ha ([1]; Sorghum halepense, pre-emergence, Preemergence, 31 g ai/ha, scale 0 to 100 (0 no effect, 100 complete control), read-out: Plant response rating, Johnsongrass) of the same compound?
**A.** 65%

**Q.** And the pest or weed control at 62 g/ha ([1]; Sorghum halepense, pre-emergence, Preemergence, 62 g ai/ha, scale 0 to 100, 0 no effect, 100 complete control, read-out: Plant response rating, Johnsongrass)?
**A.** 75%

**Q.** What about the pest or weed control at 31 g/ha ([2]; Bromus tectorum, post-emergence, Postemergence, read-out: Plant response rating, Bromegrass, Downy) of the same compound?
**A.** 35%

**Q.** And the pest or weed control at 62 g/ha ([2]; Bromus tectorum, post-emergence, Postemergence, scale 0 (no effect) to 100 (complete control), 13 to 15 days, read-out: Plant response rating, Bromegrass, Downy)?
**A.** 40%

**Q.** And the pest or weed control at 125 g/ha ([2]; Bromus tectorum, post-emergence, Postemergence, 125 g ai/ha, visual rating after 13 to 15 days, scale 0 (no effect) to 100 (complete control))?
**A.** 50%

**Q.** And the pest or weed control at 250 g/ha ([2]; Bromus tectorum, pre-emergence, 250 g ai/ha, Preemergence, 0 to 100 scale, read-out: Plant response rating, Bromegrass, Downy)?
**A.** 10%

**Q.** What about the pest or weed control at 31 g/ha ([2]; Bromus tectorum, pre-emergence, Preemergence, read-out: Plant response rating, Bromegrass, Downy) of the same compound?
**A.** 0%

**Q.** And the pest or weed control at 62 g/ha ([2]; Bromus tectorum, pre-emergence, Preemergence, scale 0 to 100, 0 no effect, 100 complete control, read-out: Plant response rating, Bromegrass, Downy)?
**A.** 5%

**Q.** What about the “Bromegrass, Downy plant response rating” value [2, 7] of the same compound?
**A.** 55

**Q.** And the “Bromegrass, Downy plant response rating” value [2, 6]?
**A.** 5

**Q.** And the pest or weed control at 62 g/ha ([3]; Cyperus, post-emergence, Postemergence, 62 g ai/ha, scale 0 (no effect) to 100 (complete control), 13 to 15 days, read-out: Plant response rating, Nutsedge, Yellow)?
**A.** 65%

**Q.** And the pest or weed control at 125 g/ha ([3]; Cyperus, post-emergence, Postemergence, 125 g ai/ha, visual rating after 13 to 15 days, scale 0 (no effect) to 100 (complete control))?
**A.** 70%

**Q.** And the pest or weed control at 250 g/ha ([3]; Cyperus, pre-emergence, 250 g ai/ha, Preemergence, 0 to 100 scale, read-out: Plant response rating, Nutsedge, Yellow)?
**A.** 90%

**Q.** And the pest or weed control at 31 g/ha ([3]; Cyperus, pre-emergence, Preemergence, 31 g ai/ha, scale 0 to 100 (0 no effect, 100 complete control), read-out: Plant response rating, Nutsedge, Yellow)?
**A.** 45%

**Q.** What about the “Nutsedge, Yellow plant response rating” value [3, 6] of the same compound?
**A.** 80

**Q.** And the “Corn plant response rating” value (corn (Zea mays); [6])?
**A.** 0

**Q.** What about the Corn plant response rating (crop injury, 0 = no effect, 100 = complete kill) at 31 g/ha (corn (Zea mays); Zea mays, post-emergence, Postemergence) of the same compound?
**A.** 65%

**Q.** And the Corn plant response rating (crop injury, 0 = no effect, 100 = complete kill) at 125 g/ha (corn (Zea mays); Zea mays, post-emergence, Postemergence, 125 g ai/ha, visual rating after 13 to 15 days, scale 0 (no effect) to 100 (complete control))?
**A.** 80%

**Q.** What about the Corn plant response rating (crop injury, 0 = no effect, 100 = complete kill) at 250 g/ha (corn (Zea mays); Zea mays, pre-emergence, 250 g ai/ha, Preemergence, 0 to 100 scale) of the same compound?
**A.** 0%

**Q.** And the Corn plant response rating (crop injury, 0 = no effect, 100 = complete kill) at 31 g/ha (corn (Zea mays); Zea mays, pre-emergence, Preemergence)?
**A.** 0%

**Q.** What about the Corn plant response rating (crop injury, 0 = no effect, 100 = complete kill) at 62 g/ha (corn (Zea mays); Zea mays, pre-emergence, Preemergence, 62 g ai/ha, scale 0 to 100, 0 no effect, 100 complete control) of the same compound?
**A.** 0%

**Q.** And the plant injury at 62 g/ha (soybean (Glycine max); Glycine max, post-emergence, Postemergence, 62 g ai/ha, scale 0 (no effect) to 100 (complete control), 13 to 15 days, read-out: Plant response rating, Soybean)?
**A.** 95%

**Q.** What about the plant injury at 125 g/ha (soybean (Glycine max); Glycine max, post-emergence, Postemergence, 125 g ai/ha, visual rating after 13 to 15 days, scale 0 (no effect) to 100 (complete control)) of the same compound?
**A.** 98%

**Q.** And the plant injury at 250 g/ha (soybean (Glycine max); Glycine max, pre-emergence, 250 g ai/ha, Preemergence, 0 to 100 scale, read-out: Plant response rating, Soybean)?
**A.** 0%

**Q.** And the plant injury at 31 g/ha (soybean (Glycine max); Glycine max, pre-emergence, Preemergence, 31 g ai/ha, scale 0 to 100 (0 no effect, 100 complete control), read-out: Plant response rating, Soybean)?
**A.** 0%

**Q.** What about the “Soybean plant response rating” value (soybean (Glycine max); [6]) of the same compound?
**A.** 0

**Q.** What about the pest or weed control at 62 g/ha ([4]; Eleusine indica, post-emergence, Postemergence, scale 0 (no effect) to 100 (complete control), 13 to 15 days, read-out: Plant response rating, Goosegrass) of the same compound?
**A.** 95%

**Q.** And the pest or weed control at 125 g/ha ([4]; Eleusine indica, post-emergence, Postemergence, 125 g ai/ha, visual rating after 13 to 15 days, scale 0 (no effect) to 100 (complete control))?
**A.** 95%

**Q.** What about the pest or weed control at 250 g/ha ([4]; Eleusine indica, pre-emergence, 250 g ai/ha, Preemergence, 0 to 100 scale, read-out: Plant response rating, Goosegrass) of the same compound?
**A.** 100%

**Q.** What about the pest or weed control at 31 g/ha ([4]; Eleusine indica, pre-emergence, Preemergence, 31 g ai/ha, scale 0 to 100 (0 no effect, 100 complete control), read-out: Plant response rating, Goosegrass) of the same compound?
**A.** 95%

**Q.** What about the pest or weed control at 62 g/ha ([4]; Eleusine indica, pre-emergence, Preemergence, scale 0 to 100, 0 no effect, 100 complete control, read-out: Plant response rating, Goosegrass) of the same compound?
**A.** 100%

**Q.** And the “Goosegrass plant response rating” value [4, 7]?
**A.** 98

**Q.** What about the “Goosegrass plant response rating” value [4, 6] of the same compound?
**A.** 100

**Q.** And the pest or weed control at 31 g/ha ([5]; Alopecurus myosuroides, post-emergence, 360 h, Postemergence, read-out: Plant response rating, Blackgrass)?
**A.** 5%

**Q.** And the pest or weed control at 62 g/ha ([5]; Alopecurus myosuroides, post-emergence, 360 h, Postemergence, scale 0 (no effect) to 100 (complete control), 13 to 15 days, read-out: Plant response rating, Blackgrass)?
**A.** 20%

**Q.** And the pest or weed control at 125 g/ha ([5]; Alopecurus myosuroides, post-emergence, 360 h, Postemergence, 125 g ai/ha, visual rating after 13 to 15 days, scale 0 (no effect) to 100 (complete control))?
**A.** 25%

**Q.** What about the pest or weed control at 250 g/ha ([5]; Alopecurus myosuroides, pre-emergence, 360 h, 250 g ai/ha, Preemergence, 0 to 100 scale, read-out: Plant response rating, Blackgrass) of the same compound?
**A.** 5%

**Q.** What about the pest or weed control at 31 g/ha ([5]; Alopecurus myosuroides, pre-emergence, 360 h, Preemergence, read-out: Plant response rating, Blackgrass) of the same compound?
**A.** 0%

**Q.** What about the pest or weed control at 62 g/ha ([5]; Alopecurus myosuroides, pre-emergence, 360 h, Preemergence, scale 0 to 100, 0 no effect, 100 complete control, read-out: Plant response rating, Blackgrass) of the same compound?
**A.** 5%

**Q.** What about the “Blackgrass plant response rating” value [5, 7] of the same compound?
**A.** 30

**Q.** What about the “Blackgrass plant response rating” value [5, 6] of the same compound?
**A.** 5

**Q.** And the pest or weed control at 62 g/ha (wild oat (Avena fatua); post-emergence, Postemergence, 62 g ai/ha, scale 0 (no effect) to 100 (complete control), 13 to 15 days, read-out: Plant response rating, Oat, Wild)?
**A.** 60%

**Q.** And the pest or weed control at 125 g/ha (wild oat (Avena fatua); post-emergence, Postemergence, 125 g ai/ha, visual rating after 13 to 15 days, scale 0 (no effect) to 100 (complete control))?
**A.** 60%

**Q.** And the pest or weed control at 250 g/ha (wild oat (Avena fatua); pre-emergence, 250 g ai/ha, Preemergence, 0 to 100 scale, read-out: Plant response rating, Oat, Wild)?
**A.** 10%

**Q.** And the pest or weed control at 31 g/ha (wild oat (Avena fatua); pre-emergence, Preemergence, 31 g ai/ha, scale 0 to 100 (0 no effect, 100 complete control), read-out: Plant response rating, Oat, Wild)?
**A.** 0%

— patent US8952024B2, “Herbicidal pyrimidone derivatives” (E I du Pont de Nemours and Company, priority 2009, dated 2015)
